Measured values taken from PMC11091243, “PD-L1 targeted peptide demonstrates potent antitumor and immunomodulatory activity in cancer immunotherapy” (Frontiers in Immunology, 2024).

Columns and labels:
human PD-L1 (hPD-L1) = human PD-L1 (hPD-L1) (Homo sapiens, UniProt Q9NZQ7); test: Fluorescence-based ELISA, binding specificity; settings: 20 μmol/L FITC-labeled peptide, 1.5 h room temperature, n = 3
Method: (§1) Fluorescence-based ELISA and cell-based tests were used to examine the binding specificity of PPL-C to PD-L1. To perform the ELISA, fluorescent plates were coated with 100 μL human PD-L1 (hPD-L1), mouse PD-L1 (mPD-L1), and BSA in PBS (pH 7.4) overnight at 4°C, respectively. Blocked the plates with 1% BSA (in PBST) for an hour at room temperature and rinsed twice with PBST. Then added peptides (20 μmol/L FITC-labeled PPL-C/Control peptide) and incubated for 1.5 hours at room temperature. With excitation at 488 nm and emission at 515 nm, the Cytation 3 instrument (BioTek) was used to measure the relative fluorescence intensity. Both attached and detached cells were used in the cell-based flow cytometry analysis. […] After that, cells were treated for 40 minutes at 4°C on an inversion shaker with PD-L1 antibody from Biolegend and 4 μmol/L FITC-labeled peptides (PPL-C/Control peptide). Each tube was washed twice with PBS following incubation and flow cytometry was carried out using a FACSort device. FlowJo software was used to evaluate the data that was acquired.

mouse PD-L1 (mPD-L1) = mouse PD-L1 (mPD-L1) (Mus musculus, UniProt Q9EP73); test: Fluorescence-based ELISA, binding specificity; settings: 20 μmol/L FITC-labeled peptide, 1.5 h room temperature, n = 3
Method: as §1

LLC cells = test: Flow cytometry binding to LLC cells; format: cell-based, mouse; settings: higher PD-L1 expression than MC38
Method: as §1

CT26 tumor = format: in vivo, mouse
Method: The investigators conducting the animal studies were not blinded. […] The mice were then randomized into different treatment groups.
The mice’s tumor volumes were measured by calipers after they were randomly allocated to various treatment groups. Every day tumor volumes were measured along axes (a and b) that are orthogonal to one another, and they were estimated by the equation tumor volume = π/6 × a × b^2. After the tumor was established (approximately 7 days), each group was subcutaneously injected with PPL-C (6 or 11 mg/kg), control peptide (11 mg/kg), endotoxin-free PD-L1 antibody (200 μg), or control antibody, following specific treatment procedures outlined in the flow chart. The Kaplan-Meier technique was used to determine survival differences for each group, and the log-rank test using the survival R package version 2.38-3 was applied to get the overall p-value.

PD-1/PD-L1 binding = target: T1, PD-1/PD-L1 binding (Homo sapiens, UniProt Q9NZQ7); test: ELISA competition of peptides with PD-1 for binding to PD-L1; settings: n = 3, effect increases with peptide concentration
T1 construct: PD-1: 10377-H08H
Method: After seven phages were grown and purified, the solution was diluted 10 times to produce eight gradients. To ascertain the phage’s affinity for PD-L1, an ELISA test was run. Briefly, 96-well plates were filled with 150 µL of PD-L1 ([…]) in assay diluent (BioLegend, San Diego, CA), and incubated at 4°C overnight. 5% BSA in water was used to block the wells for two hours at 4°C. Following washing, 100 µL of phage diluent was added to each well, and they were shaken for two hours at room temperature. The wells were then treated with HRP-conjugated anti-M13 antibody at dose of 1:5000. With 100 µL of HRP substrate, the reaction was observed, and the OD410 was determined. By deducting the OD value of each phage binding to BSA-coated wells from the OD value of that phage binding to PD-L1, the specific binding of each phage to PD-L1 was computed. Three duplicate runs of this assay were made. GraphPad Prism 6 software was used to compute each phage binding affinity by nonlinear regression and convert it to a Scatchard plot. ELISA was used to evaluate the candidate peptides capacity to inhibit PD1/PD-L1 binding. The subsequent stages were the same as those previously outlined. Following incubation, OD410 was determined by goat anti-rabbit monoclonal antibody that had been HRP-labeled and rabbit anti-human PD-L1 protein monoclonal antibody.
To assess the effect of PPL-C peptide interference, PD-L1 binding to PD-1 was investigated using ELISA and cell-based analysis. For the ELISA, 100 μL of mouse PD-L1 in PBS was coated in each well of a 96-well plate and incubated the plate at 4°C overnight. On the second day, 1% BSA in PBST was used to block the plate. Each well was then filled with 200 nmol/L biotinylated PD-1 and FITC-labeled PPL-C peptides (at final concentrations of 40, 20, 10, 5, or 2.5 μmol/L) before 1.5 hours incubating at room temperature. After two PBST washes, the relative FITC fluorescence intensity was measured using a Cytation 3 instrument. […] After two PBST washes, the Cytation 3 device was used to detect PE fluorescence intensity. […] Samples were analyzed by flow cytometry.

Swiss mice = format: in vivo, mouse; settings: twice intraperitoneal 180 mg/kg (30 times effective amount), observed 14 days, data not shown
MDA-MB-231 cells = test: Flow cytometry binding to MDA-MB-231 cells; format: cell-based, human; settings: higher PD-L1 expression than MC38
Method: as §1

MC38 cells = test: Flow cytometry binding to MC38 cells; format: cell-based, mouse; settings: relatively low PD-L1 expression
Method: as §1

T1 sequence (Q9NZQ7 19-239 limits assumed): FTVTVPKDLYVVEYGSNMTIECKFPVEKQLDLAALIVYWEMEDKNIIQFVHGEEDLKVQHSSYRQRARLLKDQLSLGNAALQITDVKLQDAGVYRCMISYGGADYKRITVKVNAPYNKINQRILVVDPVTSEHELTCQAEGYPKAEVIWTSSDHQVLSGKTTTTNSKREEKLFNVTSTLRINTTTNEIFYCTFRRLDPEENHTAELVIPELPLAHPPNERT
Sequence of human PD-L1 (hPD-L1) (Q9NZQ7 19-290): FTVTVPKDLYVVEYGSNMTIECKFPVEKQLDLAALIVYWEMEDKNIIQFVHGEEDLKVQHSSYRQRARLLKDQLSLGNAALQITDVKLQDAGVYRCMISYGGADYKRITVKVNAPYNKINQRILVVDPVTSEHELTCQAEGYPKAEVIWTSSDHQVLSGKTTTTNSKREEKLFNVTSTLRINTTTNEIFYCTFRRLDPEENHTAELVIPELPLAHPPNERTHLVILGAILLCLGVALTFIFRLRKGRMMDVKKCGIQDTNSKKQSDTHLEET
Sequence of mouse PD-L1 (mPD-L1) (Q9EP73 19-290): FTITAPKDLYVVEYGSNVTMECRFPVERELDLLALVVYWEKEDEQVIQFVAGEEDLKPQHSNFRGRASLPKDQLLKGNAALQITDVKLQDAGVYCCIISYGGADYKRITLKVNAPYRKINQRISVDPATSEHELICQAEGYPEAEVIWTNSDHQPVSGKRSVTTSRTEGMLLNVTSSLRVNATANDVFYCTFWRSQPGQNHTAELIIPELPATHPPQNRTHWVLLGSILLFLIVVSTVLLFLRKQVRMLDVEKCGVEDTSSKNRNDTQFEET

SMILES: CC(C)[C@H](NC(=O)[C@H](CO)NC(=O)[C@@H](NC(=O)[C@@H](N)CO)C(C)C)C(=O)N[C@@H](CO)C(=O)N[C@@H](Cc1c[nH]cn1)C(=O)N[C@@H](Cc1ccccc1)C(=O)N[C@@H](CCC(N)=O)C(=O)N[C@@H](CCCCN)C(=O)N[C@H](C(=O)N[C@@H](Cc1c[nH]c2ccccc12)C(=O)N[C@H](C(=O)N[C@H](C(=O)NCC(=O)NCC(=O)NCC(=O)N[C@@H](CO)C(=O)N[C@@H](CCCCN)C(N)=O)C(C)C)C(C)C)C(C)C [PPL-C]
- Binding to hPD-L1 (human PD-L1 (hPD-L1)): cross-reactivity
- Binding to mPD-L1 (mouse PD-L1 (mPD-L1)): higher specificity
- Affinity to LLC cells (LLC cells): higher affinity
- Increase in survival time of CT26 tumor-bearing mice (CT26 tumor; 11 mg/kg s.c. around the tumor, dosing-schedule study, saline as negative control): approximately 50%
- Increase in survival time compared to the control peptide (CT26 tumor; reduced dose, s.c. around the tumor every day or every other day): approximately 50%
- Survival time of CT26 tumor-bearing mice (CT26 tumor; reduced dose, s.c. around the tumor every day or every other day, n = 6, P<0.001): 81 days
- Competition with PD-1 to bind PD-L1 (blocking of PD-L1/PD-1) (PD-1/PD-L1 binding): significant blocking effect
- Acute toxicity (Swiss mice): no acute toxicity
- Affinity to MDA-MB-231 cells (MDA-MB-231 cells): higher affinity
- Affinity to MC38 cells (MC38 cells): low affinity
